22 compounds from PubChem BioAssay (NCI) can be followed below.

Test systems include UO-31 renal; NCI-H23 lung; SF-295 CNS; COLO 205 colon; IGROV1 ovarian; CCRF-CEM leukemia; A498 renal; CAKI-1 renal; 786-0 renal; BT-549 breast.
Common to all, as to test: DTP human tumour cell line panel, 48 h

“And” between values parts separate entries of the source, which are not always exact repeats. Identical values can stand only once.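 Assay format: 96-well plates, 48-hour exposure. GI50 = concentration required for 50% inhibition of growth. At the TGI there is no net growth.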 A value given as a limit tells only on which side of the number the result lay.

For the compound `CCCCC(=O)c1c(O)nc2sccn2c1=O`, the TGI in the test on UO-31 renal, with NCI-H23 lung, with SF-295 CNS, in the test with COLO 205 colon, in the test with IGROV1 ovarian and with CCRF-CEM leukemia was above 10 µM in each case. Moreover, the TGI in the test on A498 renal and with CAKI-1 renal was above 10 µM in each case.
Take `CC(C)=NN/C(=N\S(=O)(=O)c1ccc(Oc2cccc(Cl)c2C#N)cc1)Nc1ccc(Cl)cc1`: the concentration for total growth inhibition (TGI) with UO-31 renal, with NCI-H23 lung, in the test on 786-0 renal, with SF-295 CNS, in the test with COLO 205 colon and in the test with IGROV1 ovarian was above 100 µM in each case. Also, the TGI in the test on CCRF-CEM leukemia, in the test on BT-549 breast and in the test on CAKI-1 renal was above 100 µM each time.
`O=S(=O)(c1ccc(NC2=NC(c3ccc(O)cc3)(c3ccccc3O)c3ccccc32)cc1)c1ccc(NC2=NC(c3ccc(O)cc3)(c3ccccc3O)c3ccccc32)cc1` (stereo not drawn): the TGI with UO-31 renal is above 100 µM; in the test on NCI-H23 lung it was 8.01 µM; in the test on 786-0 renal, above 28.8 µM; with SF-295 CNS, above 53.2 µM; in the test on COLO 205 colon, above 33.6 µM; in the test on IGROV1 ovarian it was 22.2 µM. Besides, the TGI in the test with CCRF-CEM leukemia was above 100 µM; in the test with A498 renal it was 44.8 µM; with CAKI-1 renal, 59.4 µM.
In the case of `[Cl][Sn]([c]1ccccc1)([c]1ccccc1)[c]1ccccc1`, the 50% growth inhibitory concentration (GI50) is 0.183 µM and 0.0863 µM and 0.0343 µM with UO-31 renal; 0.0815 µM and 0.0133 µM in the test on NCI-H23 lung; 0.316 µM and 0.0531 µM with IGROV1 ovarian; 0.029 µM with CCRF-CEM leukemia; 0.165 µM and 0.0456 µM with A498 renal; 0.282 µM with BT-549 breast. The TGI is 0.366 µM and 0.209 µM and 0.127 µM with UO-31 renal; 0.285 µM and 0.0456 µM in the test with NCI-H23 lung; 0.865 µM and 0.196 µM with IGROV1 ovarian; 0.156 µM in the test on CCRF-CEM leukemia; 0.523 µM and 0.159 µM with A498 renal; 0.968 µM in the test with BT-549 breast.
On to `CCOC(=O)c1nc2ccc(C(F)(F)F)cc2nc1Oc1cc(OC)c(OC)c(OC)c1`, for which the concentration for total growth inhibition (TGI) with UO-31 renal is above 100 µM; in the test with 786-0 renal, above 100 µM; with SF-295 CNS it was above 100 µM; in the test with COLO 205 colon, 63.7 µM; in the test on IGROV1 ovarian it was above 100 µM; in the test with A498 renal, above 100 µM. The same compound came in with a concentration for total growth inhibition (TGI) in the test on BT-549 breast above 100 µM.
`COc1c(O)c(C=O)c2c(O)c(-c3c(C)cc4c(C(C)C)c(OC)c(O)c(C=O)c4c3O)c(C)cc2c1C(C)C`: the TGI in the test with UO-31 renal came out at 11.1 µM; in the test with NCI-H23 lung it was 13.2 µM; with SF-295 CNS, 17 µM; in the test with COLO 205 colon it was 4 µM; in the test with IGROV1 ovarian, 18.5 µM; in the test with CCRF-CEM leukemia, 37.6 µM. Moreover, the total growth inhibition concentration (TGI) was determined as 24.7 µM in the test with A498 renal and 16.9 µM in the test on CAKI-1 renal.
Take `C[n+]1cccc2c(=O)c3ccccc3oc21`: the concentration for total growth inhibition (TGI) with UO-31 renal, in the test on NCI-H23 lung, in the test with SF-295 CNS, with COLO 205 colon, in the test on IGROV1 ovarian and in the test on CCRF-CEM leukemia was above 100 µM in each case. The TGI with A498 renal and in the test on CAKI-1 renal was above 100 µM each time.
Take `Cc1cc(C)nc(SC2=C(Nc3ccc(C)c(Cl)c3)C(=O)N(Cc3ccccc3)C2=O)n1`: the GI50 with UO-31 renal, with NCI-H23 lung, with COLO 205 colon, in the test on A498 renal and in the test on BT-549 breast was above 160 µM each time. Besides, the TGI in the test with UO-31 renal, in the test with NCI-H23 lung, with COLO 205 colon, in the test on A498 renal and in the test with BT-549 breast was above 160 µM each time.
With `C/C=C/c1cc(=O)c([C@@H]2OC(=O)c3cc(OC)cc(OC)c32)co1`, the total growth inhibition concentration (TGI) in the test with UO-31 renal is above 100 µM; in the test with NCI-H23 lung, above 100 µM; with SF-295 CNS, above 100 µM; with COLO 205 colon it was 55.5 µM; in the test on IGROV1 ovarian, above 100 µM; in the test with CCRF-CEM leukemia, above 100 µM. The concentration for total growth inhibition (TGI) with CAKI-1 renal was above 100 µM.
As for `Cc1ccc2c(=O)cc(-c3ccc(Cl)s3)[nH]c2n1`, the concentration for total growth inhibition (TGI) was 0.301 µM with UO-31 renal; above 22.9 µM in the test with NCI-H23 lung; above 80.4 µM with 786-0 renal; 4.85 µM in the test on SF-295 CNS; 28.8 µM in the test on COLO 205 colon; above 100 µM with IGROV1 ovarian. Further, the TGI in the test on CCRF-CEM leukemia, with A498 renal and in the test with CAKI-1 renal was above 100 µM in each case.
Consider `C=C/C(C)=C\CC1[C@](C)(O)CC[C@H]2C(C)(C)C(=O)CC[C@]12C` (stereo partly drawn), for which the concentration for total growth inhibition (TGI) in the test with UO-31 renal is 57 µM; with NCI-H23 lung it was above 100 µM; with 786-0 renal, above 100 µM; in the test on SF-295 CNS, above 100 µM; in the test with COLO 205 colon, above 100 µM; with IGROV1 ovarian it was above 100 µM. For the same compound, the total growth inhibition concentration (TGI) in the test with CCRF-CEM leukemia, in the test on A498 renal and with CAKI-1 renal was above 100 µM each time.
Regarding `COc1cc2ccc(=O)oc2cc1O`, the TGI is 183 µM in the test on UO-31 renal; above 414 µM in the test on NCI-H23 lung; 79.7 µM in the test with SF-295 CNS; above 625 µM with COLO 205 colon; 423 µM with IGROV1 ovarian; 328 µM in the test on CCRF-CEM leukemia. Besides, the TGI in the test with A498 renal was 208 µM; in the test on CAKI-1 renal, 401 µM.
Consider `CC(=C(c1ccccc1)c1ccccc1)N1C(=O)CC(=O)N1C`, for which the total growth inhibition concentration (TGI) in the test with UO-31 renal was 31.5 µM; in the test on NCI-H23 lung it was above 100 µM; with SF-295 CNS, above 100 µM; in the test on COLO 205 colon, above 100 µM; with IGROV1 ovarian, 39 µM; in the test with CCRF-CEM leukemia, 78.2 µM. For the same compound, the values for the TGI in the test on BT-549 breast and in the test with CAKI-1 renal were above 100 µM and 64.8 µM, respectively.
On to `COP(=O)(OC)C(Cc1cn(C(C)=O)c2ccccc12)C(=O)O` (stereo not drawn), for which the TGI in the test on UO-31 renal, in the test on NCI-H23 lung, in the test on SF-295 CNS, in the test with COLO 205 colon, in the test with IGROV1 ovarian and with CCRF-CEM leukemia was above 100 µM each time. Also, the total growth inhibition concentration (TGI) in the test on A498 renal and in the test on CAKI-1 renal was above 100 µM each time.
On to `NC(=O)c1cccc([N+](=O)[O-])c1`, for which the total growth inhibition concentration (TGI) in the test on UO-31 renal, with NCI-H23 lung, in the test on 786-0 renal, in the test on SF-295 CNS, in the test on COLO 205 colon and in the test with IGROV1 ovarian was above 100 µM in each case. The TGI in the test with CCRF-CEM leukemia, in the test on A498 renal and in the test on CAKI-1 renal was above 100 µM throughout.
As to `Cc1ccc(S(=O)(=O)n2c3ccc(Br)cc3c3nc4ccccc4nc32)cc1`, the total growth inhibition concentration (TGI) in the test with UO-31 renal was above 100 µM; in the test with NCI-H23 lung, above 100 µM; with 786-0 renal it was above 100 µM; in the test with SF-295 CNS it was above 100 µM; in the test on COLO 205 colon, above 100 µM; in the test on IGROV1 ovarian it was 57.8 µM. The total growth inhibition concentration (TGI) in the test on CCRF-CEM leukemia, in the test on A498 renal and in the test on CAKI-1 renal was above 100 µM each time.
Take `CCCC(=O)NC(Nc1ccc(S(=O)(=O)Nc2cc(C)on2)cc1)(C(=O)OCC)C(F)(F)F` (stereo not drawn): the total growth inhibition concentration (TGI) in the test on UO-31 renal, in the test on NCI-H23 lung, in the test with 786-0 renal, with SF-295 CNS, in the test on COLO 205 colon and in the test with IGROV1 ovarian was above 100 µM in each case. For the same compound, the total growth inhibition concentration (TGI) in the test on CCRF-CEM leukemia, in the test with BT-549 breast and with CAKI-1 renal was above 100 µM throughout.
With `O=c1cc(N2CCCC2)[nH]c(=O)n1Cc1ccccc1`, the TGI in the test with NCI-H23 lung, in the test with 786-0 renal, with SF-295 CNS, in the test on COLO 205 colon, in the test on IGROV1 ovarian and in the test with CCRF-CEM leukemia was above 100 µM each time. In addition, the TGI with BT-549 breast and in the test on CAKI-1 renal was above 100 µM each time.
Consider `O=C1NC(=O)C(C(CC(=O)c2ccc([N+](=O)[O-])cc2)c2ccccc2)C(=O)N1` (stereo not drawn), for which the total growth inhibition concentration (TGI) is above 100 µM with UO-31 renal; 95.1 µM in the test with NCI-H23 lung; above 100 µM in the test on 786-0 renal; 54.9 µM with SF-295 CNS; above 100 µM with COLO 205 colon; above 100 µM with IGROV1 ovarian. The TGI in the test on CCRF-CEM leukemia, with A498 renal and in the test with BT-549 breast was above 100 µM each time.
As for `O=S(Nc1ccccc1)c1ccc(N2CCOCC2)cc1` (stereo not drawn), the TGI in the test with UO-31 renal was 42.7 µM; with NCI-H23 lung it was above 100 µM; in the test on 786-0 renal it was above 100 µM; in the test on SF-295 CNS it was above 100 µM; with COLO 205 colon, above 100 µM; in the test with IGROV1 ovarian, above 100 µM. Further, the TGI in the test with CCRF-CEM leukemia and in the test on BT-549 breast was above 100 µM throughout.
As to `O=C1NC(Nc2ccccc2)=NC(C(F)(F)F)(C(F)(F)F)N1`, the TGI in the test with UO-31 renal, in the test with NCI-H23 lung, in the test on 786-0 renal, with SF-295 CNS, with COLO 205 colon and with IGROV1 ovarian was above 100 µM throughout. This compound also came in with a concentration for total growth inhibition (TGI) with CCRF-CEM leukemia above 100 µM.
For `C=C[C@@H](C)[C@H](NS(=O)(=O)c1ccc(C)cc1)C(=O)OCC`, the total growth inhibition concentration (TGI) was 96.1 µM in the test on UO-31 renal; above 100 µM in the test with NCI-H23 lung; above 100 µM in the test on 786-0 renal; 63.4 µM in the test with SF-295 CNS; above 100 µM in the test on COLO 205 colon; 77.3 µM in the test on IGROV1 ovarian. For the same compound, the TGI with CCRF-CEM leukemia, in the test with A498 renal and in the test on BT-549 breast was above 100 µM in each case.

One may read the TGI as the concentration giving total growth inhibition. As usually defined, the GI50 is the concentration at which growth is held to half of that of the control.
